Legend:
[1] = tested on: activated eNOS; assay: Expression of activated eNOS in endothelial cells; type: cell-based; conditions: immunoblotting, FIG. 11
Protocol: Endothelial cells (BAECs) previously treated with the samples were washed with cold PBS buffer (pH 7.2) twice and then treated with RIPA lysis buffer [50 mM Tris-HCl, 150 mM NaCl, 0.5% sodium deoxycholate, 1% NP 40, 1% phosphatase inhibitor cocktail, 1 mM PMSF] in 150 μL/well to collect cell extracts. The protein content of the collected cell extracts was determined using Bradford assay, and then 25 μg of the protein was separated by using SDS-PAGE and transferred to nitrocellulose membrane. The nitrocellulose membrane was blocked with 1% BSA (Bovine serum albumin) solution at room temperature for 1 hour, and reacted with a primary antibody specific for the target protein at 4° C. for 12 hours. Upon completion of the reaction, the nitrocellulose membrane was washed with TBST (10 mM Tris-HCl, 150 mM NaCl, 0.05% NP 40) several times, and reacted with a secondary antibody binding to HRP (Horse radish peroxidase) at room temperature for 1 hour. After that, the nitrocellulose membrane was washed again with TBST and the target protein was confirmed by using ECL solution. To identify the target protein, luminesent image analyzer (LAS 4000 mini) were used. […] It is possible to produce nitric oxide (NO) when eNOS is phosphorylated to be activated. […]

[2] = tested on: eNOS; assay: Expression of eNOS in penile tissues by immunoblotting; type: in vivo; conditions: male Sprague-Dawley rats, orally administered for 7 days twice a day; AFG 200 and 400 mg/kg/day, BGE 400 mg/kg/day; vs control group; FIG. 8
Protocol: (§1) 8 weeks old male Sprague-Dawley rats were obtained from Orient Co., Ltd. (Korea) and used as exprimental animals. A breeding cage was conditioned with artificial lighting for 12 hours (8:00 a.m. to 8:00 p.m) and maintained at 20±3° C. The rats were provided with purified water and fed with pellet diet (Samyang diet, Korea). Food and water were not limited and supplied to the rats at a certain time of 9:00 a.m. to 10:00 a.m. every day.
(§2) 8 weeks old male Sprague-Dawley rats were allowed to be adapted to the environment of the breeding cage. […] The amount of dietary intake was measured at a certain time of 9:00 a.m. to 10:00 a.m. every day. […]
(§3) After quickly pouring liquid nitrogen into the tissues and pulverizing the tissues, proteins were extracted by RIPA lysis buffer (pH 7.4) containing 50 mM Tris-HCl, 1% NP-40, 0.25% sodium deoxycholate, 150 mM NaCl, 1 mM EDTA, 1 mM PMSF, 1 mM sodium orthovanadate, 1 mM NaF, 1 mg/mL aprotinin, 1 mg/mL leupeptin and 1 mg/mL pepstatin. After quantifying the extracted proteins using Bio-Rad protein assay kit, 30 μg and 40 μg of proteins were separated by SDS-PAGE using 8% acrylamide gel for 2 hours, and transferred to nitrocellulose membrane with being blocked by 2% BSA. […]

[3] = tested on: nitric oxide (NO); assay: Measurement of nitric oxide (NO) in penile tissues; type: in vivo; conditions: male Sprague-Dawley rats, orally administered for 7 days twice a day; AFG 200 and 400 mg/kg/day, BGE 400 mg/kg/day; vs control group; FIG. 9
Protocol: as §1
8 weeks old male Sprague-Dawley rats were allowed to be adapted to the environment of the breeding cage. Depending on their body weight, the rats were divided into 5 groups of control group (saline), Viagra® group (1.7 mg/kg/day), two AFG groups (200 and 400 mg/kg/day) and BGE (conventional red ginseng) group (400 mg/kg/day) and orally administered for 7 days twice a day (in the morning and in the afternoon). The amount of dietary intake was measured at a certain time of 9:00 a.m. to 10:00 a.m. every day. […]
The amount of the produced nitric oxide was measured by a method which slightly modifies methods proposed by Park (J. Ethnopharmacol, 2004) and Knowles (Biochem. J, 1990). […]
For 200 μL of the supernatant, the fluorescence intensity of DAF was measured at 485 nm of excitation wavelength and at 535 nm of emission wavelength using a fluorescence reader (TECAN Trading AG, Switzerland).

[4] = tested on: arginase; conditions: for Km: read-out: Km of arginase; for Km / Vmax of arginase: substrate of arginase, 55° C., 10 minutes, pH 10.0
Protocol: 20 mU arginase was dissolved in 150 μL of 0.1M carbonate-bicarbonate buffer (pH 10.0). […] After that, 750 μL of acetic acid was added to the reaction mixture so as to stop the reaction. Then, 250 μL of ninhydrin solution was added to the mixture and was reacted at 100° C. for 1 hour. The reaction mixture was cooled and the absorbance was measured at 515 nm using ELISA reader.
A standard curve was created by using 0.01-10 μM of L-ornithine, and then the arginase activity was calculated and represented from the ornithine standard curve.

[5] = tested on: nNOS; assay: Expression of nNOS in penile tissues by immunoblotting; type: in vivo; conditions: male Sprague-Dawley rats, orally administered for 7 days twice a day; AFG 200 and 400 mg/kg/day, BGE 400 mg/kg/day; vs control group; FIG. 8
Protocol: as §1, §2, §3

[6] = tested on: cGMP; assay: Measurement of cGMP in penile tissues; type: in vivo; conditions: male Sprague-Dawley rats, FIG. 10
Protocol: as §1
8 weeks old male Sprague-Dawley rats were allowed to be adapted to the environment of the breeding cage. Depending on their body weight, the rats were divided into 5 groups of control group (saline), Viagra® group (1.7 mg/kg/day), two AFG groups (200 and 400 mg/kg/day) and BGE (conventional red ginseng) group (400 mg/kg/day) and orally administered for 7 days twice a day (in the morning and in the afternoon). The amount of dietary intake was measured at a certain time of 9:00 a.m. to 10:00 a.m. every day.
After the end of feeding period, the rats were fasted for 12 hours and anesthetized with […]. […]
The concentration of cGMP was measured by a method which slightly modifies methods proposed by Park (J. Ethnopharmacol, 2004) and Knowles (Biochem. J, 1990). […]
A standard curve was created by using 0.8-50 pmol/mL of cGMP, and the concentration of cGMP was measured by cGMP ELISA kit (Aassay Designs, Inc., Michigan). […]

Row | Compound | expression of the activated eNOS in the endothelial cells (BAECs) [1] | expression of eNOS in the penile tissues [2] | production of nitric oxide (NO) in the penile tissues [3] | decomposition rate of arginase as compared with arginine [4] | Km [4] [µM] | Vmax of arginase [4] | expression of nNOS in the penile tissues [5] | concentration of cGMP in the penile tissues ([6]; orally administered for 7 days twice a day, AFG 200 and 400 mg/kg/day, BGE 400 mg/kg/day, Viagra 1.7 mg/kg/day, vs negative control group) | increase of the concentration of cGMP compared with the positive control group of Viagra ([6]; penile tissues)
1 | NC(N)=NCCC[C@H](NC[C@@]1(O)OC[C@@H](O)[C@@H](O[C@@H]2O[C@H](CO)[C@@H](O)[C@H](O)[C@H]2O)[C@@H]1O)C(=O)O [AFG, arginyl-fructosyl-glucose] | increased | increased | increased | very low | 129 | 588 µmol/min | increased | increased | less than the positive control group
2 | N=C(N)NCCC[C@H](N)C(=O)O [Arginine, L-arginine] | – | – | – | – | 12 | 1,000 μmoles/min | – | – | –
